Test results reported in patent US10076652B2, “Method for ultrasound-mediated delivery system to monitor molecular penetration” (CHANG GUNG UNIVERSITY, priority 2015, dated 2018).

Assay: Molecular penetration into the brain after focused ultrasound (FUS) induced BBB opening
Settings: in vivo
Description: First, there are three testing substances, and their molecular size spreading from 1 to nearly 150 kDa are employed in second procedure. Three substances are Gd-DTPA, Evans blue, and Bevacizumab.
FIGS. 10A and 10B are about that selected the UEI ranging of 0.65 and 1.25 for testing, and under testing the center frequency of only 0.4 MHz is employed. FIG. 10A illustrates the measured molecular penetration (molecule 1-3) of different exposure conditions (UEI set to 0, 0.65, and 1.25). FIG. 10B illustrates the measured molecular penetration (molecule 1-3) of different molecular ranges (UEI set to 0, 0.65, and 1.25). These measurement results will be compared with the final predict results.
The molecule 1 has the highest penetration because of its small molecular size (1 kDa; the predicted concentration range is 1.7 to 6.2 μM during UEI ranging of 0.65-1.25). […]
Integrating of the UEI and the UII by above uniform and calibrated method steps, in this embodiment, it is possible to examine the three molecular penetrations reflecting to the four imaging indexes with different UEIs. Another experiment is conducted, the three molecular penetrations was measured (shown in FIG. 10), and comparing to the quantified predict results of the UEI. The correlation of UEI is evaluated under the UII.

Cc1cc(-c2ccc(/N=N/c3ccc4c(S(=O)(=O)O)cc(S(=O)(=O)O)c(N)c4c3O)c(C)c2)ccc1/N=N/c1ccc2c(S(=O)(=O)O)cc(S(=O)(=O)O)c(N)c2c1O [molecule 2, Evans blue]
predicted concentration range (molecular penetration): 0.7 to 3.1 µM

Bevacizumab [molecule 3]
predicted concentration range (molecular penetration): 0.02 to 2.1 µM
